Test results reported in patent US11116754B2, “Inhibition of TOR complex 2 increases immunity against bacterial infection” (THE TRUSTEES OF COLUMBIA UNIVERSITY IN THE CITY OF NEW YORK, priority 2015, dated 2021).

Experiments:
Burkholderia cepacia [1] = assay: Survival of flies after Burkholderia cepacia infection; assay type: in vivo, Drosophila; details: relative to vehicle-fed controls, p<0.0001
Experimental: Infections were performed as previously described (Schneider et al. 2007) with Burkholderia cepacia (ATCC strain #25416). Death was assayed visually the next day every hour or more frequently as needed. Survival curves are plotted as Kaplan-Meier graphs and log-rank analysis performed using GraphPad Prism. All infection experiments were performed with a minimum of 3 independent trials and yielded statistically similar results, except where noted. Graphs and p-values in figures are representative trials.
To directly test the role of TORC1 in survival of infection, TORC1 activity was inhibited in two ways. First, flies were injected with rapamycin, a TORC1-specific inhibitor (9.6 ng per fly, equivalent to the mammalian dose of 16 mg/kg (Lee et al. 2009; Loeweth et al. 2002)).
Wild type flies, 5-7 day old males, were fed two different concentrations (250 μM and 500 μM) of Torin (MedChem Express), a TORC1 and TORC2 inhibitor, for two days prior to infection with Burkholderia cepacia as described in Example 1. Controls were fed a vehicle.

Burkholderia cepacia [2] = assay: Bacterial load quantitation after Burkholderia cepacia infection; assay type: in vivo, Drosophila; details: wild type flies fed Torin vs vehicle-fed flies
Excerpt: Data are plotted with SEM.

Torin
survival of infection (Burkholderia cepacia [1]; wild type male flies fed 250 μM for two days prior to infection): significantly increased
survival of infection (Burkholderia cepacia [1]; wild type male flies fed 500 μM for two days prior to infection): significantly increased
bacterial load (Burkholderia cepacia [2]): not significant change
